Laboratory results published in PMC6324813, “Biological evaluation of isoflavonoids from Genista halacsyi using estrogen-target cells: Activities of glucosides compared to aglycones” (PLoS ONE, 2019).

Assays:
Ishikawa cells = experiment: Induction of AlkP expression in Ishikawa cells; assay type: cell-based, human; details: for Induction of Alkaline Phosphatase Expression (Ishikawa cells) AUC (%): % of AUC of luciferase response of archetypal 3, 4, 5 or 8 up to 0.3, 10, 1.0 and 3.0 μM; for EC (25% of 0.1 nM E2 effect) / activation at 1 µM / EC50: Homo sapiens, Ishikawa; for EC (25% of 0.1 nM E2 effect) / activation at 1 µM: 72 h; for EC (25% of 0.1 nM E2 effect): concentration required to achieve 25% of the effect of 0.1 nM E2, read-out: Induction of Alkaline Phosphatase Expression (Ishikawa cells) EC25E2; for activation at 1 µM: read-out: Induction of AlkP expression (Ishikawa cells) Agonism at 1μΜ (% of 0.1nM E2); for EC50: concentration required to achieve 50% of the effect of 0.1 nM E2, read-out: Induction of Alkaline Phosphatase Expression (Ishikawa cells) EC50E2; for AlkP-inducing agonist effect compared to the effect of 0.1 nM estradiol: isoflavonoids 1 μM, statistically significant effects
Summary of the method: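 Ishikawa cells at 12,000 per well were grown in phenol-red-free MEM with 1 μg/mL insulin and 5% DCC-FBS, as an estrogenic read-out. AlkP activity versus isoflavonoid concentration was curve-fitted and AUC derived. AUC was expressed as % of the luciferase-response AUC of the matching archetypal isoflavone.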

MCF-7 cells = experiment: MCF-7 cell proliferation (MTT); assay type: cell-based, human; details: Homo sapiens, MCF7, 72 h; read-out: Induction of cell proliferation (MCF-7 cells) Agonism at 1μΜ (% of 0.1nM E2)
Protocol: Test compound effects on the proliferation of MCF-7 and MDA-MB-231 cells were assessed as previously described.

MC3T3-E1 cells = experiment: Mineralization of MC3T3-E1 cells, Alizarin red staining; assay type: cell-based, mouse; details: DF + E2 1 nM or compound 1 μM; 21 days; DF plus vehicle = 100
Protocol: Differentiation of MC3T3-E1 cells to osteoblasts has been extensively used to screen for compounds that may promote bone formation. Differentiation of MC3T3-E1 cells was carried out in 96-well plates using 3,300 cells per well and was assessed via induction of, i) Alkaline Phosphatase (AlkP) activity after 6 days of treatment and, ii) mineralization of extracellular matrix after 21 days of treatment. Briefly, 24 h after plating, the cells were incubated with test compounds or vehicle i.e. the compound diluent (0.1% DMSO) and then exposed for 6 days to differentiation medium in presence or absence of differentiation factors (cf. Cell culture) with a change to fresh compounds and medium in 3 days. AlkP activity was assessed at 405 nm in a Safire II microplate reader using as substrate p-nitrophenyl-phosphate (pNPP, Sigma-Aldrich) as already described. Mineralization of MC3T3 cells was assessed by staining with Alizarin red (Fluka). Cells were cultured and treated as described above for 21 days, with media and test compounds changed every 3 days, and calcium phosphate deposition was assayed as described by Gregory et al.. Briefly, the cells were washed twice with PBS and fixed with 70% ethanol for 15 min on ice. The cells were stained with Alizarin red solution (40 mM, pH 4.2) for 30 min at room temperature, washed twice with distilled water and once with PBS. The dye from the stained mineral deposits was extracted with 33% acetic acid and the absorbance was measured at 405 nm using a Safire II microplate reader (Tecan).

RAW 264.7 cells = experiment: Differentiation of RAW 264.7 cells to osteoclasts, TRAP activity; assay type: cell-based, mouse; details: RANKL 50 ng/ml + E2 1 nM or compound 1 μM; 3 days; DF plus vehicle = 100
Protocol: Clones of RAW 264.7 cells competent to differentiate to multinuclear osteoclasts upon activation with RANKL provide valuable information on the regulation of osteoclast differentiation. Differentiation-competent RAW cells (ATCC TIB-71) were seeded in 96-well plates at a density of 9,600 cells per well. The cells were plated in the presence of test compounds or compound diluent (0.1% DMSO) and, 4 h after plating, were exposed for 3 days to 50 ng/ml RANKL or to plain medium. Osteoclastic differentiation was assessed via induction of Tartrate-Resistant Acid Phosphatase (TRAP) activity. The cells were washed with PBS and incubated with 25μl lysis buffer (0.4 M NaCl, 25 mM Hepes pH 7.7, 1.5 mM MgCl2, 0.2 mM EDTA, 1% NP40) for 5 min on ice.

TNFα mRNA = experiment: LPS-induced TNFα mRNA expression in RAW 264.7 cells (RT-qPCR); assay type: cell-based, mouse; details: for reduction of LPS induction of TNFα mRNA expression: 3 μM, LPS 100 ng/ml 1 h; for suppression of LPS-stimulated TNFα mRNA expression: pre-incubated with 3 μM isoflavonoid prior to the stimulation
Protocol: To assess TNFα mRNA expression, RAW 264.7 cells were plated in 6-well plates in alpha-MEM medium supplemented with 10% DCC-FBS, at a density of 300,000 cells per well, maintained in culture for 72 h and then exposed to vehicle (0.3% DMSO) or 3 μΜ test compound for 20 min or 24 h prior to stimulation with 100 ng/ml lipopolysaccharide (Sigma L4391) for 1 h. Extraction of total RNA, reverse transcription (RT) and quantitative PCR (qPCR) analysis of mRNA expression levels were performed as previously described. Relative gene expression levels were calculated by the comparative Ct method using the formula 2^(-ΔCt). Tumor necrosis factor alpha (TNFα) mRNA levels were normalized to the respective levels of […] (GAPDH). Test compound effects on the relative number of viable cells were assessed using crystal violet and a Safire II microplate reader (Tecan) as previously described. […] The following primers were used: […]

ERβ = ERβ (Homo sapiens, UniProt Q92731); experiment: ERE-dependent luciferase gene transcription in HEK:ERβ cells; assay type: cell-based; set-up: expressed in transfected cells; host or cells: HEK-293 (HEK:ERβ clone, with pERE-tk-Luciferase); details: 18 h
Sequence of ERβ (Q92731 whole entry): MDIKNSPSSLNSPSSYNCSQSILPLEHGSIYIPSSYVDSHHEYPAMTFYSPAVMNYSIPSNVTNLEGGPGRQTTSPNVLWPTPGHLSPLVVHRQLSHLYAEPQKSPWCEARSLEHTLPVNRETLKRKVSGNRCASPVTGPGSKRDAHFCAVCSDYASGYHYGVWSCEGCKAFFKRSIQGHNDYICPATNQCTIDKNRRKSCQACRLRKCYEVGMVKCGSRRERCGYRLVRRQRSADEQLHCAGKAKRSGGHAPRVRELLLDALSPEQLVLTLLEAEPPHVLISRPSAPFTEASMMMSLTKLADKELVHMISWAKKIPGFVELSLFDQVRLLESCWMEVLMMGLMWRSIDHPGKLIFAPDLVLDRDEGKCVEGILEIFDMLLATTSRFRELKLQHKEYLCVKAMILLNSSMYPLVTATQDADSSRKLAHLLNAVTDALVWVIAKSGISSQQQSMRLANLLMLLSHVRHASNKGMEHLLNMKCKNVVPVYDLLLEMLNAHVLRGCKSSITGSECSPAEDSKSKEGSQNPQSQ

Row | SMILES | Induction of Alkaline Phosphatase Expression (Ishikawa cells) AUC (%) (Ishikawa cells) | Ratio of AUC (AlkP / Lucif) (Ishikawa cells; AUCAlkP / AUCluciferase) | EC (25% of 0.1 nM E2 effect) (Ishikawa cells) [µM] | activation at 1 µM (Ishikawa cells) [%] | EC50 (Ishikawa cells) [nM] | AlkP-inducing agonist effect compared to the effect of 0.1 nM estradiol (Ishikawa cells) | activation at 1 µM (MCF-7 cells) [%] | Differentiation of MC3T3-E1 cells, Alizarin red staining (%) (MC3T3-E1 cells) | Differentiation of RAW 267.4 cells, TRAP expression (%) (RAW 264.7 cells) | reduction of LPS induction of TNFα mRNA expression (TNFα mRNA; pre-treatment 20 min) [%] | reduction of LPS induction of TNFα mRNA expression (TNFα mRNA; pre-treatment 24 h) [%] | suppression of LPS-stimulated TNFα mRNA expression (TNFα mRNA) | activation at 1 µM (ERβ; read-out: Induction of luciferase gene transcription through ERβ, HEK:ERβ cells, Agonism at 1μΜ (% of 0.1nM E2)) [%] | Induction of luciferase gene transcription through ERβ, HEK:ERβ cells, Agonism at 1μΜ (% of 0.1nM E2) (ERβ; compounds 1 μM, estradiol 0.1 nM)
1 | O=c1c(-c2ccc(OC3O[C@H](CO)[C@@H](O)[C@H](O)[C@H]3O)cc2)coc2cc(OC3O[C@H](CO)[C@@H](O)[C@H](O)[C@H]3O)cc(O)c12 (stereo partly drawn) [Compound 11, 7,4΄-di-O-glucopyranosylgenistein] | 66±5 | 0.88±0.06 | 0.09 ± 0.01 | 105 ± 9 | 160 ± 20 | very similar to estradiol | 79 ± 5 | 120±5 | 112±9 | 30 | 29 | ~ 30% | 80 ± 20 | –
2 | O=c1c(-c2ccc(O)cc2)coc2cc(O[C@@H]3O[C@H](CO)[C@@H](O)[C@H](O)[C@H]3O)cc(O)c12 [Compound 12, 7-O-β-D-glucopyranosyl-genistein] | 110±10 | – | 0.05 ± 0.01 | 101 ± 5 | 70 ± 10 | very similar to estradiol | 79 ± 9 | 137±14 | 110±5 | – | 20 | marginally effective | – | 121 ± 18 (Full) % of 0.1nM E2
